Reference: article PMC9102953, “New Derivatives of 5-Substituted Uracils: Potential Agents with a Wide Spectrum of Biological Activity” (Molecules, 2022)
Read-outs that look alike come from different tables or passages of the source.

Assays:
[1] = system: yellow fever virus (YFV) strain 17 D; experiment: microbe, parasite or virus in culture; assay type: cell-based; settings: Yellow fever virus, Huh-7, read-out: EC50 (μM) YFV 17D, Huh7
in vitro [2] = settings: dog
HCoV-OC43 = experiment: Antiviral cytopathicity assay, HCoV-OC43 in HEL 299 cells; assay type: cell-based
[3] = system: respiratory syncytial virus (RSV) strain A Long; experiment: microbe, parasite or virus in culture; assay type: cell-based; settings: human respiratory syncytial virus, HEL 299, read-out: EC50 (μM) RSV A Long, HEL 299
[4] = system: varicella-zoster virus (VZV) strain TK−; experiment: microbe, parasite or virus in culture; assay type: cell-based; settings: Human alphaherpesvirus 3, HEL, read-out: EC50, formation of viral plaques, TK-varicella-zoster virus strain
[5] = system: HEL299, Huh 7 and MDCK cells
a variety of RNA viruses = assay type: cell-based
HEL cells = experiment: Change of cell morphology in HEL cells; assay type: cell-based, human
[6] = system: human cytomegalovirus (HCMV) strain Davis; experiment: microbe, parasite or virus in culture; assay type: cell-based; settings: Human betaherpesvirus 5, HEL, read-out: EC50, formation of viral plaques, cytomegalovirus strain Davis
[7] = system: human cytomegalovirus (HCMV) strain AD-169; experiment: microbe, parasite or virus in culture; assay type: cell-based; settings: Human betaherpesvirus 5, AD169, HEL, read-out: EC50, formation of viral plaques, cytomegalovirus strain AD169
in vitro [8] = settings: human
in vitro [9] = settings: human; remark: listed apart in the source
[10] = Betacoronavirus 1, OC43, HEL 299, read-out: EC50 (μM) HCoV-OC43, HEL 299

Molecule `CC(C)(C)c1ccc(Nc2cn(C3C=CC(O)C3)c(=O)n(C3C=CC(O)C3)c2=O)cc1` (racemic) [(±)-4e, (±)-1-(1-(4′-hydroxycyclopent-2′-ene-1′-yl))-3-(4‴-hydroxycyclopent-2‴-en-1‴-yl)-5-((4″-tert-butyl)phenylamino)uracil] has an EC50 [1] of over 100 µM, a CC50 (in vitro [2]) of 19.5 µM and an EC50 (HCoV-OC43; Betacoronavirus 1, OC43, HEL 299 cells, reduction of virus-induced cytopathicity by 50%, read-out: EC50 (μM) HCoV-OC43, HEL 299) of over 100 µM. The EC50 [3] was over 100 µM, the EC50 [4] was 48.9 µM and the “cytotoxicity in the tested cell lines (in words)” value (shortened to “cytotoxicity”) [5] was “marked cytotoxicity”. For the same molecule, the “antiviral activity in the screening (in words)” value (from here on “antiviral activity”) (a variety of RNA viruses) was “did not show any activity”, the “minimum concentration that leads to the detection of changes in cell morphology” value (HEL cells) was “greater than 100 μM” and the EC50 [6] was 40.9 µM. It also gave an EC50 [7] of 76.5 µM.
Molecule `Cc1cc(C)cc(Oc2cn(C3C=CC(O)C3)c(=O)[nH]c2=O)c1` (racemic) [(±)-10a, (±)-1-(4′-Hydroxycyclopent-2′-en-1′-yl)-5-(3″,5″-dimethylphenoxy)uracil] has an EC50 [1] of over 100 µM, a CC50 (in vitro [2]) of 33.8 µM and an EC50 (HCoV-OC43; [10]) of over 100 µM. The EC50 [3] was over 100 µM, the “cytotoxicity” value [5] was “marked cytotoxicity” and the “antiviral activity” value (a variety of RNA viruses) was “did not show any activity”. For the same molecule, the CC50 (in vitro [8]) was over 100 µM and the CC50 (in vitro [9]) was over 100 µM.
`O=c1c(Oc2ccc(Cl)cc2)cn(C2C=CC(O)C2)c(=O)n1C1C=CC(O)C1` (racemic) [(±)-11c, (±)-1-(4′-hydroxycyclopent-2′-en-1′-yl)-3-(4‴-hydroxycyclopent-2‴-en-1‴-yl)-5-(4″-chlorophenoxy)uracil] showed an EC50 [1] of over 100 µM, a CC50 (in vitro [2]) of 47.4 µM and an EC50 (HCoV-OC43; [10]) of over 100 µM. The EC50 [3] was over 100 µM, the “cytotoxicity” value [5] was “marked cytotoxicity” and the “antiviral activity” value (a variety of RNA viruses) was “did not show any activity”. For the same molecule, the CC50 (in vitro [8]) was over 100 µM and the CC50 (in vitro [9]) was over 100 µM.
